Reference: ChEMBL document CHEMBL5634141 (Eur J Med Chem, 2023)
Activity calls are given as the source filed them. The rule behind the calls is not given here.

Tests used:
NCI-H358 [1] = assay: Synergistic antiproliferative activity against human NCI-H358 cells expressing KRAS G12C mutant assessed as combination index at 30 nM incubated for 72 hrs in presence of crizotinib by CCK-8 assay; type: functional
SW837 [2] = assay: Antiproliferative activity against human SW837 cells expressing KRAS G12C mutant assessed as relative cell viability at 30 nM incubated for 72 hrs in presence of selumetinib by CCK-8 assay; type: functional; conditions: read-out: Activity
MIA PaCa-2 [3] = assay: Induction of apoptosis in human MIA PaCa-2 cells assessed as necrotic cells at 300 nM incubated for 48 hrs by Annexin V-FITC staining based flow cytometry analysis (reference value: 1.25 %); type: functional
MIA PaCa-2 [4] = assay: Antitumor activity against human MIA PaCa-2 cells xenografted in BALB/c nude mouse assessed as tumor growth inhibition at 30 mg/kg, ip measured after 16 days relative to control; type: functional; conditions: MIA PaCa-2, 384 h, time 16 day, read-out: TGI
MIA PaCa-2 [5] = assay: Antitumor activity against human MIA PaCa-2 cells xenografted in BALB/c nude mouse assessed as tumor growth inhibition at 10 mg/kg, ip measured after 8 days relative to control; type: functional; conditions: MIA PaCa-2, 192 h, time 8 day, read-out: TGI
MIA PaCa-2 [6] = assay: Induction of apoptosis in human MIA PaCa-2 cells assessed as late apoptotic cells at 30 nM incubated for 48 hrs by Annexin V-FITC staining based flow cytometry analysis (reference value: 5.69 %); type: functional
NCI-H358 [7] = assay: Antiproliferative activity against human NCI-H358 cells expressing KRAS G12C mutant assessed as relative cell viability at 30 nM incubated for 72 hrs in presence of daclolisib by CCK-8 assay; type: functional; conditions: read-out: Activity
NCI-H23 = assay: Antiproliferative activity against human NCI-H23 cells expressing KRAS G12C mutant assessed as relative cell viability at 30 nM incubated for 72 hrs in presence of naporafenib by CCK-8 assay; type: functional; conditions: read-out: Activity
Mus musculus = assay: In vivo PROTAC activity at VHL/KRAS G12C mutant in BALB/c nude mouse xenografted with human MIA PaCa-2 cells assessed as decrease in KRAS level at 10 to 30 mg/kg, ip administered for 16 days by Western blot analysis; type: functional, organism-based; conditions: dose 10-30 mg/kg, time 16.0 day
MIA PaCa-2 [8] = assay: Induction of apoptosis in human MIA PaCa-2 cells assessed as necrotic cells at 30 nM incubated for 48 hrs by Annexin V-FITC staining based flow cytometry analysis (reference value: 1.25 %); type: functional
MIA PaCa-2 [9] = assay: Antitumor activity against human MIA PaCa-2 cells xenografted in BALB/c nude mouse assessed as reduction in percentage of CD31-positive cells at 10 to 30 mg/kg, ip administered for 16 days by immunohistochemical staining analysis; type: functional, organism-based; conditions: dose 10-30 mg/kg, time 16.0 day
[10] = Downregulation of KRAS G12C mutant expression in human NCI-H358 cells assessed as log2 of fold change at 200 nM incubated for 48 hrs by MS-based proteomic analysis; type: functional
MIA PaCa-2 [11] = assay: Induction of apoptosis in human MIA PaCa-2 cells assessed as necrotic cells at 100 nM incubated for 48 hrs by Annexin V-FITC staining based flow cytometry analysis (reference value: 1.25 %); type: functional
[12] = system: von Hippel-Lindau disease tumor suppressor/GTPase KRas (Homo sapiens), P01116+P40337 [G12C]; assay: PROTAC activity at VHL/KRAS G12C mutant in human MIA PaCa-2 cells assessed as induction of protein degradation at 300 nM incubated for 6 hrs by Western blotting analysis relative to control; type: cell-based
[13] = AUC (0 to infinity) in ICR mouse at 2 mg/kg, iv measured after 24 hrs by LC-MS/MS analysis; type: ADME, organism-based; conditions: in vivo
NCI-H358 [14] = assay: Antiproliferative activity against human NCI-H358 cells expressing KRAS G12C mutant assessed as relative cell viability at 30 nM incubated for 72 hrs by CCK-8 assay; type: functional; conditions: read-out: Activity
NCI-H358 [15] = assay: Induction of apoptosis in human NCI-H358 cells assessed as viable cells at 300 nM incubated for 48 hrs by Annexin V-FITC staining based flow cytometry analysis (reference value: 91.6 %); type: functional; conditions: read-out: Activity
[16] = system: von Hippel-Lindau disease tumor suppressor/GTPase KRas (Homo sapiens), P01116+P40337 [G12C]; assay: (§1) PROTAC activity at VHL/KRAS G12C mutant in human NCI-H358 cells assessed as induction of protein degradation incubated for 72 hrs by Western blot analysis; type: cell-based
[17] = target: von Hippel-Lindau disease tumor suppressor/GTPase KRas (Homo sapiens, UniProt P01116+P40337, G12C); assay: as §1; type: cell-based
Calu-1 [18] = assay: Antiproliferative activity against human Calu-1 cells expressing KRAS G12C mutant assessed as relative cell viability at 30 nM incubated for 72 hrs in presence of naporafenib by CCK-8 assay; type: functional; conditions: read-out: Activity
MIA PaCa-2 [19] = assay: Induction of apoptosis in human MIA PaCa-2 cells assessed as late apoptotic cells at 300 nM incubated for 48 hrs by Annexin V-FITC staining based flow cytometry analysis (reference value: 5.69 %); type: functional
NCI-H358 [20] = assay: Synergistic antiproliferative activity against human NCI-H358 cells expressing KRAS G12C mutant assessed as combination index at 30 nM incubated for 72 hrs in presence of infigratinib by CCK-8 assay; type: functional
SW837 [21] = assay: Antiproliferative activity against human SW837 cells expressing KRAS G12C mutant assessed as relative cell viability at 30 nM incubated for 72 hrs in presence of naporafenib by CCK-8 assay; type: functional; conditions: read-out: Activity
[22] = system: von Hippel-Lindau disease tumor suppressor/GTPase KRas (Homo sapiens), P01116+P40337 [G12C]; assay: PROTAC activity at VHL/KRAS G12C mutant in human MIA PaCa-2 cells assessed as induction of protein degradation at 100 nM incubated for 48 hrs by Western blotting analysis relative to control; type: cell-based
MIA PaCa-2 [23] = assay: Antitumor activity against human MIA PaCa-2 cells xenografted in BALB/c nude mouse assessed as tumor growth inhibition at 30 mg/kg, ip measured after 8 days relative to control; type: functional; conditions: MIA PaCa-2, 192 h, time 8 day, read-out: TGI
[24] = Half life in ICR mouse at 30 mg/kg, ip measured after 24 hrs by LC-MS/MS analysis; type: ADME, organism-based; conditions: in vivo
NCI-H358 [25] = assay: Synergistic antiproliferative activity against human NCI-H358 cells expressing KRAS G12C mutant assessed as combination index at 30 nM incubated for 72 hrs in presence of […] by CCK-8 assay; type: functional
SW837 [26] = assay: Antiproliferative activity against human SW837 cells expressing KRAS G12C mutant assessed as relative cell viability at 30 nM incubated for 72 hrs in presence of daclolisib by CCK-8 assay; type: functional; conditions: read-out: Activity
[27] = system: von Hippel-Lindau disease tumor suppressor/GTPase KRas (Homo sapiens), P01116+P40337 [G12C]; assay: PROTAC activity at VHL/KRAS G12C mutant in human NCI-H358 cells assessed as induction of protein degradation at 100 nM incubated for 48 hrs by Western blotting analysis relative to control; type: cell-based
[28] = system: von Hippel-Lindau disease tumor suppressor/GTPase KRas (Homo sapiens), P01116+P40337 [G12C]; assay: PROTAC activity at VHL/KRAS G12C mutant in human MIA PaCa-2 cells assessed as inhibition of ERK phosphorylation by Western blotting analysis; type: cell-based
Calu-1 [29] = assay: Antiproliferative activity against human Calu-1 cells expressing KRAS G12C mutant assessed as relative cell viability at 30 nM incubated for 72 hrs in presence of MK-2206 by CCK-8 assay; type: functional; conditions: read-out: Activity
NCI-H358 [30] = assay: Synergistic antiproliferative activity against human NCI-H358 cells expressing KRAS G12C mutant assessed as combination index incubated for 72 hrs in presence of AZD4573 by CCK-8 assay; type: functional

Chain of von Hippel-Lindau disease tumor suppressor/GTPase KRas (P01116 whole entry G12C, stated change not applied): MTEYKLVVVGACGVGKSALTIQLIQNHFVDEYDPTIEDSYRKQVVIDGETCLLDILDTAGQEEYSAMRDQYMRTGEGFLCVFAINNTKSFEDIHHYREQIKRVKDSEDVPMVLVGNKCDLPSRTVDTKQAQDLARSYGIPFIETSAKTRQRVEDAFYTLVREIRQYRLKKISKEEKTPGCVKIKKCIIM
Chain of von Hippel-Lindau disease tumor suppressor/GTPase KRas (P40337 whole entry partner, stated change not applied): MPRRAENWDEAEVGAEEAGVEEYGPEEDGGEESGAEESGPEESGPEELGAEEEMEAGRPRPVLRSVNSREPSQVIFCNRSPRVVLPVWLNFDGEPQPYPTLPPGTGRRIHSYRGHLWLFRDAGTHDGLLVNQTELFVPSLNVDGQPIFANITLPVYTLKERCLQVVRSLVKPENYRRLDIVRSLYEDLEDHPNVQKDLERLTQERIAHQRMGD

C=CC(=O)N1CCN(c2nc(=O)n(-c3c(C)ccnc3C(C)C)c3nc(-c4c(F)cccc4OCC4CCN(CCCC(=O)N[C@H](C(=O)N5C[C@H](O)C[C@H]5C(=O)NCc5ccc(-c6scnc6C)cc5)C(C)(C)C)CC4)c(F)cc23)[C@@H](C)C1
CI (NCI-H358 [1]): <1 | viability at 0.03 µM (SW837 [2]): 0.2% | Activity (MIA PaCa-2 [3]): 4.08% | inhibition in vivo at 30 mg/kg (MIA PaCa-2 [4]): 100% | inhibition in vivo at 10 mg/kg (MIA PaCa-2 [5]): 93.4% | Activity (MIA PaCa-2 [6]): 7.18% | viability at 0.03 µM (NCI-H358 [7]): 0.29% | viability at 0.03 µM (NCI-H23): 0.34% | Activity (Mus musculus): Active | Activity (MIA PaCa-2 [8]): 1.37% | Activity (MIA PaCa-2 [9]): Active | log2FC [10]: >1 | Activity (MIA PaCa-2 [11]): 4.09% | Activity [12]: 50% | AUC [13]: 404 ng·h/mL | viability at 0.03 µM (NCI-H358 [14]): 0.83% | viability at 0.3 µM (NCI-H358 [15]): 79.6% | Activity [16]: Dose-Dependent Effect | DC50 [17]: 67 nM | viability at 0.03 µM (Calu-1 [18]): 0.44% | Activity (MIA PaCa-2 [19]): 19.9% | CI (NCI-H358 [20]): <1 | viability at 0.03 µM (SW837 [21]): 0.32% | Activity [22]: 100% | inhibition in vivo at 30 mg/kg (MIA PaCa-2 [23]): > 100% | half-life [24]: 3.87 h | CI (NCI-H358 [25]): <1 | viability at 0.03 µM (SW837 [26]): 0.24% | Activity [27]: 100% | Activity [28]: Dose-Dependent Effect | viability at 0.03 µM (Calu-1 [29]): 0.32% | CI (NCI-H358 [30]): <1
